Assay results published in patent US12103916B2, “Antifungal compounds” (University of Kentucky Research Foundation, priority 2016, dated 2024).
Like-named read-outs stand apart in the source and are kept apart here. Marks after values point to notes of the source that are not given here.

Columns and labels:
[1] = system: C. glabrata ATCC 2001 (strain H); assay: Time-kill assay, strain H; type: cell-based, Candida glabrata; details: Ex.2 series, compound at 4×MIC, VOR control
Protocol: FIG. 9A-9D include Representative time-kill curves for compound 20 against FIG. 9A. C. albicans ATCC 10231 (strain A) and FIG. 9B. C. parapsilosis ATCC 22019 (strain J), as well as for compound 22 against FIG. 9C. C. glabrata ATCC 2001 (strain H), and FIG. 9D. strain J. Fungal strains were treated with no drug (black circles), 1×MIC (white circles), 4×MIC (inverted black triangles), or 8×MIC (white triangles) of compounds 20 or 22, or with 1×MIC (black squares) or 4×MIC (white squares) of VOR. The detection limit of this assay was 100 CFU/mL (represented by the red line in panels A and C).
Time-kill assays. To determine if the antifungal activity of the alkylated piperazine-azole hybrids is fungistatic or fungicidal, we performed time-kill assays over 24-hour periods by using compounds 20 and 22, each against two fungal strains (strains A and J for 20; H and J for 22) (FIG. 9).

C. albicans ATCC 64124 = assay: MIC determination, strain B; type: cell-based, Candida albicans; details: Candida albicans, ATCC64124
Protocol: (§1) The antifungal activity of our new azole compounds 1-9 and 24-41 was first evaluated against a panel of seven Candida albicans strains (A-G), three non-albicans Candida strains […], and three Aspergillus strains (K-M) in a concentration range of 0.03-31.2 μg/mL (Table 1). […] For all of our azole derivatives we report their MIC-0 values against C. albicans ATCC 10231 (strain A) and all Aspergillus strains (K-M), which correspond to complete growth inhibition of these fungi. […] The commercially available antifungals AmB, FLC, ITC, POS, and VOR were used as reference drugs for comparison. The MIC values presented for these five control drugs were either tested herein or correspond to our previously published data^5, 16 as indicated in Table 1.
(§2) Antifungal activity in the absence or presence of serum. The antifungal activity of the newly prepared alkylated piperazine/morpholine-azole hybrids 16-28, of intermediate 14 that we used to verify that only final compounds exert antifungal activity, as well as that of alkylated piperazine/morpholine derivatives 1-10 were first evaluated against a panel of seven C. albicans (ATCC 10231 (A), ATCC 64124(R) (B), ATCC MYA-2876(S) (C), ATCC 90819(R) (D), ATCC MYA-2310(S) (E), ATCC MYA-1237(R) (F), and ATCC MYA-1003(R) (G)), three non-albicans Candida (C. glabrata ATCC 2001 (H), C. krusei ATCC 6258 (I), and C. parapsilosis ATCC 22019 (J)), and three Aspergillus (A. flavus ATCC MYA-3631 (K), A. nidulans ATCC 38163 (L), and A. terreus ATCC MYA-3633 (M)) strains using a concentration range of 0.03-31.3 μg/mL (Table 2).
(§3) Commercially available antifungal agents such as AmB, CAS, FLC, and VOR were used as positive controls for comparison. […] It is important to note that all comparisons to follow will be done by using the MIC values reported in μg/mL as the data were collected that way. However, we also present in parentheses in Table 2 the corresponding values in micromolar.
(§4) We used the commercially available antifungal agents such as AmB, caspofungin (CAS), FLC, and VOR as positive controls for comparison. For derivatives 5-16 as well as the reference drugs AmB and CAS, we reported MIC-0 values, which correspond to no visible growth. […] In this manuscript, we performed all activity comparisons by using the MIC values reported in μg/mL (Note: the corresponding MIC values are also provided in μM into parentheses in Tables 1, 2, S1, and S2).

[2] = system: C. albicans ATCC MYA-2310(S); details: Table 1; strain E; control azoles; previously reported (refs 5, 16); cited from earlier work
[3] = system: Aspergillus nidulans ATCC 38163; assay: MIC determination, strain L; type: cell-based
Text: (§5) For all of our azole derivatives we report their MIC-0 values against C. albicans ATCC 10231 (strain A) and all Aspergillus strains (K-M), which correspond to complete growth inhibition of these fungi. […] The MIC values presented for these five control drugs were either tested herein or correspond to our previously published data^5, 16 as indicated in Table 1.
(§6) Antifungal activity in the absence or presence of serum.
(§7) It is important to note that all comparisons to follow will be done by using the MIC values reported in μg/mL as the data were collected that way. However, we also present in parentheses in Table 2 the corresponding values in micromolar.
(§8) In this manuscript, we performed all activity comparisons by using the MIC values reported in μg/mL (Note: the corresponding MIC values are also provided in μM into parentheses in Tables 1, 2, S1, and S2).

[4] = system: C. albicans ATCC 90819(R); assay: MIC determination, strain D; type: cell-based, Candida albicans; details: Candida albicans, ATCC90819
Protocol: as §1, §2, §3, §4

[5] = system: C. albicans ATCC MYA-1003(R); assay: MIC determination, strain G; type: cell-based, Candida albicans; details: Candida albicans
Text: as §5, §6, §7, §8

[6] = system: C. albicans ATCC 90819(R); details: Table 1; strain D; control azoles; previously reported (refs 5, 16); cited from earlier work
[7] = system: C. albicans ATCC 64124 (strain B) biofilms; assay: Antibiofilm activity by XTT reduction assay; type: cell-based, Candida albicans; details: Table 4, Ex.2
Protocol: Antibiofilm activity of synthetic compounds. Biofilms are complex functional communities of one or more species of microorganisms that are encased in extracellular polymeric substances and attached to both a solid surface and to each other. Being complex matrices, antifungal agents have difficulty reaching the pathogens embedded in these difficult-to-treat networks. The antibiofilm activity of compounds 7, 9, 20, 22, 25, and 26, as well as that of VOR were evaluated against biofilms of C. albicans ATCC 64124 (strain B) by XTT reduction assay (Table 4).

[8] = system: C. albicans ATCC MYA-1237(R); assay: MIC determination, strain F; type: cell-based, Candida albicans; details: Candida albicans
Text: as §5, §6, §7, §8

[9] = read-out: MIC (MIC-2), in parentheses

SMILES: C[C@@H](c1ncncc1F)[C@](O)(Cn1cncn1)c1ccc(F)cc1F [VOR, voriconazole]
- effect in time-kill assay [1]: fungistatic
- MIC (C. albicans ATCC 64124; read-out: MIC (MIC-2)): 3.9 µg/mL
- MIC (C. albicans ATCC 64124; [9]): 11.2 µM
- MIC (MIC-2) [2]: 0.975^c μg/mL
- MIC ([3]; ATCC38163, Table 2, strain L, all compounds and controls, read-out: MIC (MIC-0)): 0.12 µg/mL
- MIC ([3]; ATCC38163, Table 2, strain L, all compounds and controls, read-out: MIC (MIC-0), in parentheses): 0.34 µM
- MIC ([3]; ATCC38163, Table 3, Ex.2 compounds, no FBS, read-out: MIC, Aspergillus nidulans ATCC 38163 (L) (no FBS)): 0.12 µg/mL
- MIC ([3]; ATCC38163, read-out: MIC, Aspergillus nidulans ATCC 38163 (L) (+10% FBS), Table 3, Ex.2 compounds, +10% FBS): 0.12 µg/mL
- MIC ([4]; read-out: MIC (MIC-2)): 1.95 µg/mL
- MIC [4, 9]: 5.6 µM
- MIC ([5]; read-out: MIC (MIC-2)): 1.95 µg/mL
- MIC [5, 9]: 5.6 µM
- MIC (MIC-2) [6]: 1.95^c μg/mL
- SMIC50 ([7]; reduces metabolic activity of biofilms by 50%): 62.5 µg/mL
- SMIC80 ([7]; reduces metabolic activity of biofilms by 80%): 62.5 µg/mL
- MIC ([8]; read-out: MIC (MIC-2)): 7.8 µg/mL
- MIC [8, 9]: 22.3 µM
